This data set is described as follows: Solubility of envelope-disordering compounds in the diol compounds. To be noted: typical compositions.

Consider `CCCCCCCCCCO` [n-decanol], for which the “soluble in the diol compounds / same compositions up to” value is listed as “up to 50 % by weight”.

The values are drawn from patent US4954487A, “Penetrating topical pharmaceutical compositions” (The Procter & Gamble Company, priority 1989, dated 1990).
